Laboratory results published in PubChem BioAssay AID248 (DTP/NCI, 2004).
Several values for one entry are separate records, joined by “and”; a condition that tells them apart may be missing. Equal entries are not always repeated. Inconclusive results and toxic doses are left out. Rule as the data show it: active = T/C of 150% or more; inactive = T/C below 125%.

System: L1210 leukemia ip in BDF1 mice, survival T/C
Assay: NCI In Vivo Anticancer Drug Screen. Data for tumor model L1210 Leukemia (intraperitoneal) in B6D2F1 (BDF1) mice
Conditions: endpoint: mean survival time, higher = longer survival
How it was run: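 Ratio derived from survival: compound-dosed mice over vehicle-dosed mice, all bearing a transplantable tumor.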

[1] = dose: 50.0 mg/kg/injection, schedule: Q01DX001 (ip), vehicle: carboxymethylcellulose (CMC)
[2] = dose: 100.0 mg/kg/injection, schedule: Q01DX001 (ip), vehicle: carboxymethylcellulose (CMC)
[3] = dose: 200.0 mg/kg/injection, schedule: Q01DX001 (ip), vehicle: carboxymethylcellulose (CMC)
[4] = dose: 400.0 mg/kg/injection, schedule: Q01DX001 (ip), vehicle: carboxymethylcellulose (CMC)
[5] = dose: 50.0 mg/kg/injection, schedule: Q01DX009 (ip), vehicle: saline with Tween-80
[6] = dose: 100.0 mg/kg/injection, schedule: Q04DX003 (ip), vehicle: saline with Tween-80
[7] = dose: 200.0 mg/kg/injection, schedule: Q04DX003 (ip), vehicle: saline with Tween-80
[8] = dose: 400.0 mg/kg/injection, schedule: Q04DX003 (ip), vehicle: saline with Tween-80
[9] = dose: 100.0 mg/kg/injection, schedule: Q01DX009 (ip), vehicle: Klucel (hydroxypropylcellulose) (HPC)

Measured: T/C

COc1cc(CN(C)C2CCCCC2)cc(OC)c1OC
inactive: dose: 6.25 mg/kg/injection, schedule: Q01DX009 (ip), vehicle: saline 103 % of control | dose: 12.5 mg/kg/injection, schedule: Q01DX009 (ip), vehicle: saline 103 % of control | dose: 25.0 mg/kg/injection, schedule: Q01DX009 (ip), vehicle: saline 100 % of control | dose: 25.0 mg/kg/injection, schedule: Q04DX003 (ip), vehicle: saline 97 % of control | dose: 50.0 mg/kg/injection, schedule: Q01DX009 (ip), vehicle: saline 94 % of control | dose: 50.0 mg/kg/injection, schedule: Q04DX003 (ip), vehicle: saline 103 % of control | dose: 100.0 mg/kg/injection, schedule: Q01DX009 (ip), vehicle: saline 90 % of control | dose: 100.0 mg/kg/injection, schedule: Q04DX003 (ip), vehicle: saline 100 % of control

CCCCCC1OC1CC1OC1CCCCCCCC(=O)OC (configuration not stated)
inactive: dose: 100.0 mg/kg/injection, schedule: Q01DX001 (ip), vehicle: saline 109 % of control | dose: 200.0 mg/kg/injection, schedule: Q01DX001 (ip), vehicle: saline 95 % of control | dose: 400.0 mg/kg/injection, schedule: Q01DX001 (ip), vehicle: saline 102 % of control

CCCCCCCCCCCCCCOc1ccc(C(=S)N2CCOCC2)cc1OC
inactive: dose: 100.0 mg/kg/injection, schedule: Q04DX003 (ip), vehicle: Klucel (hydroxypropylcellulose) (HPC) 100 % of control | dose: 200.0 mg/kg/injection, schedule: Q04DX003 (ip), vehicle: Klucel (hydroxypropylcellulose) (HPC) 100 % of control | dose: 400.0 mg/kg/injection, schedule: Q04DX003 (ip), vehicle: Klucel (hydroxypropylcellulose) (HPC) 94 % of control

CC(SC(C)C(=O)NN=C1CCSCC1)C(=O)NN=C1CCSCC1 (configuration not stated)
inactive: dose: 55.0 mg/kg/injection, schedule: Q01DX Z (ip), vehicle: methylcellulose (MC) 104 % of control | dose: 83.0 mg/kg/injection, schedule: Q01DX Z (ip), vehicle: methylcellulose (MC) 91 % of control | dose: 125.0 mg/kg/injection, schedule: Q01DX Z (ip), vehicle: methylcellulose (MC) 114 % of control

CC(C)=C(Br)CC[C@@H](C)[C@H]1CC[C@@]2(C)C3=C(CC[C@]12C)[C@@]1(C)CC[C@H](O)C(C)(C)[C@@H]1CC3
inactive: dose: 62.0 mg/kg/injection, schedule: Q01DX Z (sc), vehicle: steriod suspending solution 102 % of control | dose: 125.0 mg/kg/injection, schedule: Q01DX Z (sc), vehicle: steriod suspending solution 95 % of control | dose: 250.0 mg/kg/injection, schedule: Q01DX Z (sc), vehicle: steriod suspending solution 95 % of control | dose: 500.0 mg/kg/injection, schedule: Q01DX Z (sc), vehicle: steriod suspending solution 95 % of control

O=[N+]([O-])c1ccc(O)c(/C=N\NC(=S)Nc2ccc3cn[nH]c3c2)c1
inactive: [1] 97 % of control | [2] 103 % of control | [3] 93 % of control | [4] 97 % of control

CCN(CCCCO)CCc1c[nH]c2ccc(OC)cc12
inactive: dose: 4.68 mg/kg/injection, schedule: Q01DX009 (ip), vehicle: saline 98 % of control | dose: 9.37 mg/kg/injection, schedule: Q01DX009 (ip), vehicle: saline 106 % of control | dose: 18.75 mg/kg/injection, schedule: Q01DX009 (ip), vehicle: saline 96 % of control | dose: 18.75 mg/kg/injection, schedule: Q04DX003 (ip), vehicle: saline 112 % of control | dose: 37.5 mg/kg/injection, schedule: Q01DX009 (ip), vehicle: saline 104 % of control | dose: 37.5 mg/kg/injection, schedule: Q04DX003 (ip), vehicle: saline 101 % of control | dose: 75.0 mg/kg/injection, schedule: Q01DX009 (ip), vehicle: saline 95 % of control | dose: 75.0 mg/kg/injection, schedule: Q04DX003 (ip), vehicle: saline 106 % of control | dose: 150.0 mg/kg/injection, schedule: Q01DX009 (ip), vehicle: saline 109 % of control

CC(=O)C(C(C)=O)C(C)=O.CC(=O)C(C(C)=O)C(C)=O.CC(=O)C(C(C)=O)C(C)=O.[Cr]
inactive: [1] 100 % of control | [2] 94 % of control | [3] 105 % of control | [4] 100 % of control

CN(C)c1ccc(/C=N/NC(=O)c2ccc(O)cc2)c(Cl)c1
inactive: dose: 25.0 mg/kg/injection, schedule: Q01DX009 (ip), vehicle: saline with Tween-80 97 % of control and 103 % of control | dose: 50.0 mg/kg/injection, schedule: Q01DX001 (ip), vehicle: saline with Tween-80 86 % of control | [5] 102 % of control and 113 % of control | dose: 100.0 mg/kg/injection, schedule: Q01DX001 (ip), vehicle: saline with Tween-80 88 % of control | dose: 100.0 mg/kg/injection, schedule: Q04DX002 (ip), vehicle: saline with Tween-80 97 % of control and 98 % of control | [6] 104 % of control | dose: 200.0 mg/kg/injection, schedule: Q01DX001 (ip), vehicle: saline with Tween-80 94 % of control | dose: 200.0 mg/kg/injection, schedule: Q04DX002 (ip), vehicle: saline with Tween-80 97 % of control and 91 % of control | [7] 87 % of control | dose: 400.0 mg/kg/injection, schedule: Q01DX009 (ip), vehicle: saline with Tween-80 92 % of control | dose: 400.0 mg/kg/injection, schedule: Q04DX002 (ip), vehicle: saline with Tween-80 94 % of control and 90 % of control | [8] 95 % of control

COC(=O)CNc1ccc(O)cc1
inactive: dose: 100.0 mg/kg/injection, schedule: Q04DX003 (ip), vehicle: other 102 % of control | dose: 200.0 mg/kg/injection, schedule: Q04DX003 (ip), vehicle: other 94 % of control | dose: 400.0 mg/kg/injection, schedule: Q04DX003 (ip), vehicle: other 88 % of control

O=C1C2C3CCC(O3)C2C(=O)N1Cc1ccccc1CBr (configuration not stated)
inactive: dose: 100.0 mg/kg/injection, schedule: Q04DX003 (ip), vehicle: carboxymethylcellulose (CMC) 95 % of control | dose: 200.0 mg/kg/injection, schedule: Q04DX003 (ip), vehicle: carboxymethylcellulose (CMC) 98 % of control

CCn1[nH]cc2c3nnc(-c4ccccc4)c3cnc21
inactive: dose: 100.0 mg/kg/injection, schedule: Q04DX002 (ip), vehicle: Klucel (hydroxypropylcellulose) (HPC) 98 % of control | dose: 200.0 mg/kg/injection, schedule: Q04DX002 (ip), vehicle: Klucel (hydroxypropylcellulose) (HPC) 92 % of control | dose: 400.0 mg/kg/injection, schedule: Q04DX002 (ip), vehicle: Klucel (hydroxypropylcellulose) (HPC) 95 % of control

O=S(=O)(O)CCN1CCOCC1
inactive: [9] 100 % of control | dose: 400.0 mg/kg/injection, schedule: Q01DX009 (ip), vehicle: Klucel (hydroxypropylcellulose) (HPC) 100 % of control

CNC(=O)C1C2C=CC(C2)C1C(=O)NC (configuration not stated)
inactive: [6] 93 % of control and 100 % of control and 87 % of control | [7] 96 % of control and 100 % of control and 106 % of control | [8] 93 % of control and 100 % of control (2×)

O=C(OC/C=C/c1ccccc1)c1ccccc1
inactive: [5] 97 % of control | dose: 100.0 mg/kg/injection, schedule: Q01DX009 (ip), vehicle: saline with Tween-80 91 % of control | dose: 200.0 mg/kg/injection, schedule: Q01DX009 (ip), vehicle: saline with Tween-80 91 % of control

CCOC(=O)c1ccc(OC(=O)Nc2ccc(OC)cc2OC)cc1
inactive: [9] 101 % of control

COC(=O)C1=CNC=C(C(=O)OC)C1c1ccc(OC)cc1
inactive: [6] 95 % of control | [7] 96 % of control | [8] 95 % of control

Cc1ccccc1CC1c2[nH]c3ccccc3c2CCN1C (configuration not stated)
inactive: dose: 75.0 mg/kg/injection, schedule: Q01DX001 (ip), vehicle: other 92 % of control | dose: 150.0 mg/kg/injection, schedule: Q01DX001 (ip), vehicle: other 86 % of control
